Assay results reported in paper PMC7780097, “Asn‐linked N–acetylglucosamine of the amylin receptor 2 extracellular domain enhances peptide ligand affinity” (FEBS Open Bio, 2020).

Experiments:
full‐length CTR = details: cited from earlier work
Source text: The calcitonin receptor (CTR) is a class B GPCR for peptide hormone calcitonin that regulates calcium homeostasis. CTR has an ECD with four N‐glycosylation sites: N28, N73, N125, and N130. […] My colleagues and I reported that N‐glycosylation of CTR enhanced salmon calcitonin (sCT) affinity for CTR ECD by sevenfold and that the asp ...

CTR ECD = details: cited from earlier work
Source text: The calcitonin receptor (CTR) is a class B GPCR for peptide hormone calcitonin that regulates calcium homeostasis. CTR has an ECD with four N‐glycosylation sites: N28, N73, N125, and N130. […] Unexpectedly, the crystal structures of Endo H‐treated/Asn‐linked GlcNAc‐containing CTR ECD were almost identical to the structure of glycan‐free CTR ECD with a subtle structural difference. Direct interaction between the Asn‐linked GlcNAc and peptide hormone sCT was not found in the crystal structures ruling out the hypothesis of direct interaction between them. We also examined whether CTR ECD residues near the Asn‐linked GlcNAc of N130 medi ...

[1] = test system: glycosylated CTR ECD[N130D]; test: FP peptide binding assay, glycosylated CTR ECD[N130D] with or without PNGase F treatment; details: PNGase F treatment vs No PNGase F treatment; Fig. 2A
Experimental: (§1) pHLsec‐based vectors were used to obtain glycosylated CTR ECD from HEK293S GnTI^− cells as a secreted protein. Maltose‐binding protein (MBP) was fused to the CTR ECD to increase initial protein expression and purification.
(§2) MBP‐TEV cleavage site‐CTR ECD WT was expressed from HEK293S GnTI^− cells for 3 days after plasmid transfection with polyethyleneimine (PEI). All protein purification steps were performed at 4 °C, otherwise noted. The expressed protein was purified with immobilized Ni metal affinity chromatography (IMAC). The peak fractions were pooled and incubated with 1 : 5 ratio TEV protease (w/w, TEV protease: protein) for 6 h at 20 °C. The reaction mixture was spin‐concentrated (MWCO 10 kDa) and loaded to size‐exclusion chromatography (SEC). The fractions with expected CTR ECD WT molecular weight were collected, spin‐concentrated, and used for PNGase F reaction and following peptide binding assay. […]
(§3) The procedure of fluorescence polarization (FP) peptide binding assay was previously described [4]. FITC‐sCT(22–32), FITC‐AC413(6–25), and FITC‐AM(37–52)[S45W/Q50W] were used as fluorescence‐labeled peptide probes. […] A PolarStar Omega plate reader (BMG Labtech, Cary, NC, USA) or a SpectraiD5 (Molecular Devices, San Jose, CA, USA) was used to measure FP. Background‐subtracted fluorescence intensity was used to calculate anisotropy.

[2] = biological target: T1, glycosylated CTR ECD[N130D] (Homo sapiens, UniProt P30988, N130D); test: as above; details: heat‐inactivated PNGase F vs No PNGase F; Fig. 2A
T1 sequence (P30988 38-141 N130D): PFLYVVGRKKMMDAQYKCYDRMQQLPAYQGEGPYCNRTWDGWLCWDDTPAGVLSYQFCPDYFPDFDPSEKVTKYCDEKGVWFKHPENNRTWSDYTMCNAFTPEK
Experimental: as §1, §2, §3

AMY = test system: AMY; set-up: method as in PMID 15692146; details: cited from earlier work
CTR = test system: CTR; set-up: method as in PMID 15692146; details: cited from earlier work
[3] = biological target: RAMP2 ECD:CTR ECD complex (Endo H‐treated CTR ECD WT) (Homo sapiens, UniProt O60895+P30988); test: FP peptide binding assay, RAMP2 ECD 100 μM coincubation with Endo H-treated CTR ECD WT (AMY2 ECD); details: Discussion summary of Fig. 4B
Sequence of RAMP2 ECD:CTR ECD complex (Endo H‐treated CTR ECD WT) (P30988 38-141): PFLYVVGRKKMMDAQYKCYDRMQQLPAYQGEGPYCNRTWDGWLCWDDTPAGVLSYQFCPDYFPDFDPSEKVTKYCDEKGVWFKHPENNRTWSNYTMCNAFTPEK
Sequence of RAMP2 ECD:CTR ECD complex (Endo H‐treated CTR ECD WT) (O60895 55-140): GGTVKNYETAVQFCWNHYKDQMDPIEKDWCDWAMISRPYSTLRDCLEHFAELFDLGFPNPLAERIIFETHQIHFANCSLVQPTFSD
Experimental: The expression and purification procedure of Endo H‐treated CTR ECD WT and N130D was previously reported. […] After TEV protease reaction, N‐glycans of the protein were trimmed with 1 : 10 ratio Endo H (w/w, Endo H : protein) overnight at 4 °C, while dialyzing to 25 mM MOPS (pH 6.5) and 150 mM NaCl. Next day, the pH was increased to pH 7.5 and the protein was purified with IMAC and following SEC. The final peak fractions were dialyzed to storage buffer and stored at −80 °C until use.
The expression and purification of glycan‐free RAMP2 ECD were previously reported except for using RAMP2.55‐140 instead of RAMP2.36‐140 [15]. Briefly, MBP‐Thrombin cleavage site‐hRAMP2.55‐140‐H6 was expressed in the E. coli strain Origami B DE3. The cells were lysed by sonication and spun down by centrifugation. The supernatant was purified with IMAC and following amylose affinity chromatography. Human α‐thrombin was used to cleave out MBP, and the reaction mixture was loaded to IMAC to remove untagged MBP and thrombin. The RAMP2 ECD was further purified with SEC, and the peak fractions were dialyzed to storage buffer and stored at −80 °C until use. RAMP2 ECD without an MBP‐tag was also purified as follows. hRAMP2.55‐140‐H6 was expressed in the E. coli strain Origami B DE3. The bacterial cells were lysed by sonication using Bioruptor® standard (Diagenode Inc., Denville, NJ, USA). […]

[4] = by the Asn‐linked GlcNAc of CTR N130

For salmon calcitonin [sCT], the “affinity, effect of N‐glycosylation of CTR ECD N130” value (full‐length CTR) is given as “enhanced”, the “fold enhancement of affinity by N‐glycosylation” value (CTR ECD; N‐glycosylation of CTR) is given as “sevenfold” and the “decrease of dissociation rate” value (CTR ECD; [4]) is given as “twofold”. The fold affinity enhancement (CTR ECD; [4]) was “sixfold”, the “increase of association rate” value (CTR ECD; [4]) was “threefold” and the “fold decrease in affinity” value [1] was 1.7 fold. The “effect of heat‐inactivated PNGase F on affinity” value [2] was “did not change”, the agonist activity (AMY) was “high affinity agonist” and the agonist activity (CTR) was “high affinity agonist”. The “sCT affinity for AMY2 ECD, effect of the Asn‐linked GlcNAc of CTR N130” value [3] was “increased”.
